Source: ChEMBL document CHEMBL4507257, “Data for DCP probe ABT-100” (2021)

How the values were obtained:
[1] = molecular target: Dual specificity mitogen-activated protein kinase kinase 5 (Homo sapiens) (UniProt Q13163); conditions: Compound concentration 1000.0 nM
[2] = molecular target: Insulin receptor-related protein (Homo sapiens) (UniProt P14616); conditions: Compound concentration 1000.0 nM
[3] = molecular target: Serine/threonine-protein kinase D3 (Homo sapiens) (UniProt O94806); conditions: Compound concentration 1000.0 nM
[4] = molecular target: Aurora kinase C (Homo sapiens) (UniProt Q9UQB9); conditions: Compound concentration 1000.0 nM
[5] = molecular target: Protein kinase C eta type (Homo sapiens) (UniProt P24723); conditions: Compound concentration 1000.0 nM
[6] = molecular target: Aurora kinase B (Homo sapiens, UniProt Q96GD4); conditions: Compound concentration 1000.0 nM
[7] = molecular target: Microtubule-associated serine/threonine-protein kinase 1 (Homo sapiens) (UniProt Q9Y2H9); conditions: Compound concentration 1000.0 nM
[8] = molecular target: Serine/threonine-protein kinase VRK2 (Homo sapiens) (UniProt Q86Y07); conditions: Compound concentration 1000.0 nM
[9] = molecular target: Tyrosine-protein kinase ITK/TSK (Homo sapiens) (UniProt Q08881); conditions: Compound concentration 1000.0 nM
[10] = molecular target: Cyclin-dependent kinase 9 (Homo sapiens) (UniProt P50750); conditions: Compound concentration 1000.0 nM
[11] = molecular target: Dual specificity protein kinase CLK1 (Homo sapiens) (UniProt P49759); conditions: Compound concentration 1000.0 nM
[12] = molecular target: 1-phosphatidylinositol 3-phosphate 5-kinase (Homo sapiens) (UniProt Q9Y2I7); conditions: Compound concentration 1000.0 nM
[13] = tested on: Receptor-type tyrosine-protein kinase FLT3 (Homo sapiens), P36888 [UNDEFINED MUTATION]; conditions: Compound concentration 1000.0 nM
[14] = tested on: Hepatocyte growth factor receptor (Homo sapiens), P08581 [M1250T]; conditions: Compound concentration 1000.0 nM
[15] = molecular target: Calcium/calmodulin-dependent protein kinase type IV (Homo sapiens) (UniProt Q16566); conditions: Compound concentration 1000.0 nM
[16] = molecular target: SRSF protein kinase 2 (Homo sapiens) (UniProt P78362); conditions: Compound concentration 1000.0 nM
[17] = molecular target: Ephrin type-A receptor 6 (Homo sapiens) (UniProt Q9UF33); conditions: Compound concentration 1000.0 nM
[18] = molecular target: Serine/threonine-protein kinase 26 (Homo sapiens) (UniProt Q9P289); conditions: Compound concentration 1000.0 nM
[19] = molecular target: Sodium-dependent serotonin transporter (Homo sapiens) (UniProt P31645); conditions: Compound concentration 10.0 uM
[20] = tested on: Epidermal growth factor receptor (Homo sapiens), P00533 [UNDEFINED MUTATION]; conditions: Compound concentration 1000.0 nM
[21] = molecular target: D(1A) dopamine receptor (Homo sapiens) (UniProt P21728); conditions: Compound concentration 10.0 uM
[22] = molecular target: Myosin-IIIa (Homo sapiens) (UniProt Q8NEV4); conditions: Compound concentration 1000.0 nM
[23] = molecular target: T1, D(4) dopamine receptor (Homo sapiens) (UniProt P21917); conditions: Compound concentration 10.0 uM
T1 sequence (whole entry): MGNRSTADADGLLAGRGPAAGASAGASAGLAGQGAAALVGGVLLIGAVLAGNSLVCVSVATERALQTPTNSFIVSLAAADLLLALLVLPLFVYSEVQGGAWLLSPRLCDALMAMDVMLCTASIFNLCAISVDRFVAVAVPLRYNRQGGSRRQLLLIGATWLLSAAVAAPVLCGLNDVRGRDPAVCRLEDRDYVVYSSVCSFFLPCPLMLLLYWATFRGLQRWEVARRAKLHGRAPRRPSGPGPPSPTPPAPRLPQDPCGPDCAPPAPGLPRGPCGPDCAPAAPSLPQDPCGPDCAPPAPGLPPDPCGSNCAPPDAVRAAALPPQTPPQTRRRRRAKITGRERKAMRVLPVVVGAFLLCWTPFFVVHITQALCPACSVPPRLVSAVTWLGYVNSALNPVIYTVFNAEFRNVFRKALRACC

[24] = molecular target: Calcium/calmodulin-dependent protein kinase type 1B (Homo sapiens, UniProt Q6P2M8); conditions: Compound concentration 1000.0 nM
[25] = tested on: Epidermal growth factor receptor (Homo sapiens), P00533 [G719C]; conditions: Compound concentration 1000.0 nM
[26] = molecular target: Inhibitor of nuclear factor kappa-B kinase subunit alpha (Homo sapiens) (UniProt O15111); conditions: Compound concentration 1000.0 nM
[27] = molecular target: Mitogen-activated protein kinase kinase kinase 2 (Homo sapiens) (UniProt Q9Y2U5); conditions: Compound concentration 1000.0 nM
[28] = molecular target: Serine/threonine-protein kinase PAK 2 (Homo sapiens) (UniProt Q13177); conditions: Compound concentration 1000.0 nM
[29] = molecular target: 5-hydroxytryptamine receptor 1E (Homo sapiens) (UniProt P28566); conditions: Compound concentration 10.0 uM
[30] = molecular target: Serine/threonine-protein kinase MRCK beta (Homo sapiens) (UniProt Q9Y5S2); conditions: Compound concentration 1000.0 nM
[31] = molecular target: Aurora kinase A (Homo sapiens) (UniProt O14965); conditions: Compound concentration 1000.0 nM
[32] = molecular target: Ephrin type-A receptor 5 (Homo sapiens) (UniProt P54756); conditions: Compound concentration 1000.0 nM
[33] = molecular target: Cyclin-dependent kinase 11A (Homo sapiens) (UniProt Q9UQ88); conditions: Compound concentration 1000.0 nM
[34] = molecular target: RAC-beta serine/threonine-protein kinase (Homo sapiens) (UniProt P31751); conditions: Compound concentration 1000.0 nM
[35] = molecular target: Serine/threonine-protein kinase Nek5 (Homo sapiens) (UniProt Q6P3R8); conditions: Compound concentration 1000.0 nM
[36] = molecular target: Myosin light chain kinase, smooth muscle (Homo sapiens) (UniProt Q15746); conditions: Compound concentration 1000.0 nM
[37] = molecular target: Serine/threonine-protein kinase D2 (Homo sapiens) (UniProt Q9BZL6); conditions: Compound concentration 1000.0 nM
[38] = molecular target: Platelet-derived growth factor receptor beta (Homo sapiens) (UniProt P09619); conditions: Compound concentration 1000.0 nM
[39] = molecular target: Homeodomain-interacting protein kinase 1 (Homo sapiens) (UniProt Q86Z02); conditions: Compound concentration 1000.0 nM
[40] = molecular target: Cyclin-dependent kinase-like 1 (Homo sapiens) (UniProt Q00532); conditions: Compound concentration 1000.0 nM

Myosin-IIIa (Homo sapiens), sequence (Q8NEV4 whole entry): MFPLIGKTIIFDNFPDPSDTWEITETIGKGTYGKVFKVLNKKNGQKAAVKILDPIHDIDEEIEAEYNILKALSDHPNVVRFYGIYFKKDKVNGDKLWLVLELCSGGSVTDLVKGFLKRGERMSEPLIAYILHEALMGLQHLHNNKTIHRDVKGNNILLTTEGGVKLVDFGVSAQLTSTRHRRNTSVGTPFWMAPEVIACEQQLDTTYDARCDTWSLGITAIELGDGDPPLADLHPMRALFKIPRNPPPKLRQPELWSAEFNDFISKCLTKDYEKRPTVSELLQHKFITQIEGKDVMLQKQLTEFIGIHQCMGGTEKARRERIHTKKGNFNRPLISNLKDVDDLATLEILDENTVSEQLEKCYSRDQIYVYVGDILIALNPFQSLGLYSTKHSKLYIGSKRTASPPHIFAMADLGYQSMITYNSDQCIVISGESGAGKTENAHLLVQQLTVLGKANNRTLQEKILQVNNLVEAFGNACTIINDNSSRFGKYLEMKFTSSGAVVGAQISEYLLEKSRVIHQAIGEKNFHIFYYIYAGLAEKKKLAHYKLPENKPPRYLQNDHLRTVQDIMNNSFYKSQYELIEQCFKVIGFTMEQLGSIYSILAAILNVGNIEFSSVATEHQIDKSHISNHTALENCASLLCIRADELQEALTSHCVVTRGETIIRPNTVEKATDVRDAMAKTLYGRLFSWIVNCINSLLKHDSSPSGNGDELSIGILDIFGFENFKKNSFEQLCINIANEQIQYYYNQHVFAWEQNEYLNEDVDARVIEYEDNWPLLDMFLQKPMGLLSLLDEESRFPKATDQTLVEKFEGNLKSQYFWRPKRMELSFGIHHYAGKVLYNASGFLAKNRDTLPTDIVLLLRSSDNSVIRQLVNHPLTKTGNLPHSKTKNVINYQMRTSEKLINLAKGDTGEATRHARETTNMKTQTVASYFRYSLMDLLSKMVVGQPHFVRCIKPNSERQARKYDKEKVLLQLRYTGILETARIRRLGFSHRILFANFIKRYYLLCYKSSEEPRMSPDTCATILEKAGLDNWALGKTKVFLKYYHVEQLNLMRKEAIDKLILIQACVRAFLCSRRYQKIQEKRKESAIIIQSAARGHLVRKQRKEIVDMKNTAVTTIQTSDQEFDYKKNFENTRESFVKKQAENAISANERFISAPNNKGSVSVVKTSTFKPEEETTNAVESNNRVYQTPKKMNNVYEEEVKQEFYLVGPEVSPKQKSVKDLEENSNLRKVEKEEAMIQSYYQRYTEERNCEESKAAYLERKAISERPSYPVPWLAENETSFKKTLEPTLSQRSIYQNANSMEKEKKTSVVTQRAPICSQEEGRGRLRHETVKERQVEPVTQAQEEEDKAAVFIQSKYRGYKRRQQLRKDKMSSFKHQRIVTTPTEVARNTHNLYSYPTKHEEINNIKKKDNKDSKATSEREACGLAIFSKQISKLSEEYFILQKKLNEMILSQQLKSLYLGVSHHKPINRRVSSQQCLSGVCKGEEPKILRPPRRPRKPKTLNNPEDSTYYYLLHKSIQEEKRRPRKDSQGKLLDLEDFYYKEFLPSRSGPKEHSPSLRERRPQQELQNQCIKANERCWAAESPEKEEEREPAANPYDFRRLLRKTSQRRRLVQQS
Calcium/calmodulin-dependent protein kinase type 1B, sequence (Q6P2M8 whole entry): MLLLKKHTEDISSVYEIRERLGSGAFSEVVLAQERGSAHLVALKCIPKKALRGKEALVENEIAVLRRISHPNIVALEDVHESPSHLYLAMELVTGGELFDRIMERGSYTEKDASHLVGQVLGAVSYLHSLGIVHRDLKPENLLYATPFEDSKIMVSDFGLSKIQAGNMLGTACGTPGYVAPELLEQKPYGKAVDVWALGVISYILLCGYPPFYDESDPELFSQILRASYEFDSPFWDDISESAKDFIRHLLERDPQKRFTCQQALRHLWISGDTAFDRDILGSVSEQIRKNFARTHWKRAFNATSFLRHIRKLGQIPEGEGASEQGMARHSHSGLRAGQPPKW
Homeodomain-interacting protein kinase 1 (Homo sapiens), sequence (Q86Z02 whole entry, looked up): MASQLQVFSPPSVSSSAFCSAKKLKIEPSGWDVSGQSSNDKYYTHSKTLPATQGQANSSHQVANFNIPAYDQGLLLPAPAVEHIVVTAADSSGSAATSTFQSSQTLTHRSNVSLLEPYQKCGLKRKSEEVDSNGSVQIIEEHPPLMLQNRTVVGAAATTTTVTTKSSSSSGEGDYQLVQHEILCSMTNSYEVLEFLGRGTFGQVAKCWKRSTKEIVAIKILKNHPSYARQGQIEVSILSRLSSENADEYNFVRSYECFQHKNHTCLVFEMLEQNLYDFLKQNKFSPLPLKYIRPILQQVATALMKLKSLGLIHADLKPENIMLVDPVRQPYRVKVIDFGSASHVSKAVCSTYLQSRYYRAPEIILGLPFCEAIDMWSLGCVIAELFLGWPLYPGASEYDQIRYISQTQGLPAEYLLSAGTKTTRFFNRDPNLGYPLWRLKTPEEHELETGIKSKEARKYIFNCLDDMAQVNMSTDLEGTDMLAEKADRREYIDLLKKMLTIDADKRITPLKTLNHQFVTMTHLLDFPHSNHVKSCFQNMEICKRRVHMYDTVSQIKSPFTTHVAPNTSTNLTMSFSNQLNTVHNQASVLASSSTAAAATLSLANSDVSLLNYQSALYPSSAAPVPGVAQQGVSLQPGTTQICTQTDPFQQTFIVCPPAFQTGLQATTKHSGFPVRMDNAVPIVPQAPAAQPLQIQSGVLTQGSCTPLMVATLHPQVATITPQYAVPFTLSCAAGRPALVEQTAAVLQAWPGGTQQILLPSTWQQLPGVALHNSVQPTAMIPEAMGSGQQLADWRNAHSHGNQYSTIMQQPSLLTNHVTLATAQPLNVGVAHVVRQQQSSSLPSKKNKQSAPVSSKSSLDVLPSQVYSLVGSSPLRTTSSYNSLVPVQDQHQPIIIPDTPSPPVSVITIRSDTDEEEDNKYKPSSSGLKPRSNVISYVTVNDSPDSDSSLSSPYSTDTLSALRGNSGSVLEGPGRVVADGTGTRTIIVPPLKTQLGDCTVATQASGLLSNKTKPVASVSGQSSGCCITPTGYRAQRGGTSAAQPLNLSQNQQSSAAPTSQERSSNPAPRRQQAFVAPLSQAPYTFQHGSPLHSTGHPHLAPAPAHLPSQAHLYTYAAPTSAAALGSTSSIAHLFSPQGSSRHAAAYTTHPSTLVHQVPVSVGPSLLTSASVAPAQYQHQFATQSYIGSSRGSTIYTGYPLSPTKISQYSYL
Mitogen-activated protein kinase kinase kinase 2 (Homo sapiens), sequence (Q9Y2U5 whole entry): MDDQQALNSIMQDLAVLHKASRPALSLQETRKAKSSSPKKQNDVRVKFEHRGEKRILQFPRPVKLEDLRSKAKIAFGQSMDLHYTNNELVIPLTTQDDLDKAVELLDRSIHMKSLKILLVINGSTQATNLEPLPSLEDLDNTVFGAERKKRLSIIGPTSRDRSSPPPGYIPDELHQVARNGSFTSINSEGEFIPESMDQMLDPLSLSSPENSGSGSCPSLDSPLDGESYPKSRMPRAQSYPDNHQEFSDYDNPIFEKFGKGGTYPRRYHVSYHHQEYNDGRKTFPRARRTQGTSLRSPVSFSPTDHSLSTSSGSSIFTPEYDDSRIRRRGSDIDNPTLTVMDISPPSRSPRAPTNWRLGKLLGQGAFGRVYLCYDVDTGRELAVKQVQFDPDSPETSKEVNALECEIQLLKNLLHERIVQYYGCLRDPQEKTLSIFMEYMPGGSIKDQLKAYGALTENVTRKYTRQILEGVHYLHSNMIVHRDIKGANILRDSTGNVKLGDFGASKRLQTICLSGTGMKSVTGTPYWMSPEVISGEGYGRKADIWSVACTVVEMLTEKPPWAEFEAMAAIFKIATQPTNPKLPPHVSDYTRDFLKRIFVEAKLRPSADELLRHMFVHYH
Dual specificity protein kinase CLK1 (Homo sapiens), sequence (P49759 whole entry, looked up): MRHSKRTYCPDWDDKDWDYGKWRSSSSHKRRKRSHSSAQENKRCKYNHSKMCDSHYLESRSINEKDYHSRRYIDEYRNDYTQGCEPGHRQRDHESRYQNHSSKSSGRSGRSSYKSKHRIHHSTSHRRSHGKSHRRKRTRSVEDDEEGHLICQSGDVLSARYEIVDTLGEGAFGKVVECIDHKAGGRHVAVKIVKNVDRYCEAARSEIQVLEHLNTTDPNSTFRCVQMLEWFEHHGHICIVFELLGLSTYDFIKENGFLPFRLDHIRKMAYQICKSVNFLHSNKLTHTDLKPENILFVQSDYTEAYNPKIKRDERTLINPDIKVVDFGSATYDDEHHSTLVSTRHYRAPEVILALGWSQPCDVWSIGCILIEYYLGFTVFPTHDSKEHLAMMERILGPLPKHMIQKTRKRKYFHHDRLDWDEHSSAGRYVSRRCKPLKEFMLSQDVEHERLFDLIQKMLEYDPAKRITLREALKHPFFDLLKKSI
Serine/threonine-protein kinase PAK 2 (Homo sapiens), sequence (Q13177 whole entry): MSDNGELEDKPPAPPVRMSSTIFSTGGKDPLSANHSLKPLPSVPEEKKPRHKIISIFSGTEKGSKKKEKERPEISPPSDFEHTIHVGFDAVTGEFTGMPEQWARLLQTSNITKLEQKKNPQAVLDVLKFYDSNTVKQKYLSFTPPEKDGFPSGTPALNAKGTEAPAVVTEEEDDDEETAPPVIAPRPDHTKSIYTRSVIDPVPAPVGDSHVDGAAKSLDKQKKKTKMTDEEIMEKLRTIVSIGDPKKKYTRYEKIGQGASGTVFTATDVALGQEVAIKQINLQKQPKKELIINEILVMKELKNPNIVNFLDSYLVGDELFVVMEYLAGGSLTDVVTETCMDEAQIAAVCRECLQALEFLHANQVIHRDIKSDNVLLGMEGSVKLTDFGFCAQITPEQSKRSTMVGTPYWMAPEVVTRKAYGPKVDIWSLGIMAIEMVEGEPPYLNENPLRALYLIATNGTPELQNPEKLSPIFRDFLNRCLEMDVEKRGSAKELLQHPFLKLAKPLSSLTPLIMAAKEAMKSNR

Q: Which results are given for `Cn1cncc1[C@@](O)(COc1ccc(C#N)cc1-c1ccc(OC(F)(F)F)cc1)c1ccc(C#N)cc1` [A-108]?
A: residual activity [1]: 88%; residual activity [2]: 96%; residual activity [3]: 98%; residual activity [4]: 90%; residual activity [5]: 95%; residual activity [6]: 100%; residual activity [7]: 100%; residual activity [8]: 95%; residual activity [9]: 100%; residual activity [10]: 100%; residual activity [11]: 100%; residual activity [12]: 100%; residual activity [13]: 80%; residual activity [14]: 97%; residual activity [15]: 100%; residual activity [16]: 55%; residual activity [17]: 3%; residual activity [18]: 99%; inhibition [19]: -7.91%; residual activity [20]: 100%; inhibition [21]: 19%; residual activity [22]: 98%; inhibition [23]: 6.23%; residual activity [24]: 100%; residual activity [25]: 66%; residual activity [26]: 100%; residual activity [27]: 100%; residual activity [28]: 96%; inhibition [29]: 7.11%; residual activity [30]: 95%; residual activity [31]: 76%; residual activity [32]: 67%; residual activity [33]: 100%; residual activity [34]: 78%; residual activity [35]: 98%; residual activity [36]: 99%; residual activity [37]: 100%; residual activity [38]: 97%; residual activity [39]: 79%; residual activity [40]: 89%

Q: For `Cn1cncc1[C@](O)(COc1ccc(C#N)cc1-c1ccc(OC(F)(F)F)cc1)c1ccc(C#N)cc1` [ABT-100], which residual activity [1] is on record?
A: 83%

Q: What about the residual activity [2] of the same compound?
A: 93%

Q: And the residual activity [3]?
A: 100%

Q: What about the residual activity [4] of the same compound?
A: 100%

Q: And the residual activity [5]?
A: 94%

Q: And the residual activity [6]?
A: 100%

Q: What about the residual activity [7] of the same compound?
A: 92%

Q: What about the residual activity [8] of the same compound?
A: 70%

Q: What about the residual activity [9] of the same compound?
A: 91%

Q: What about the residual activity [10] of the same compound?
A: 100%

Q: And the residual activity [11]?
A: 70%

Q: What about the residual activity [12] of the same compound?
A: 100%

Q: And the residual activity [13]?
A: 69%

Q: And the residual activity [14]?
A: 100%

Q: What about the residual activity [15] of the same compound?
A: 100%

Q: What about the residual activity [16] of the same compound?
A: 100%

Q: And the residual activity [17]?
A: 100%

Q: What about the residual activity [18] of the same compound?
A: 100%

Q: And the inhibition [19]?
A: 1.25%

Q: What about the residual activity [20] of the same compound?
A: 93%

Q: What about the inhibition [21] of the same compound?
A: 4.35%

Q: What about the residual activity [22] of the same compound?
A: 100%

Q: And the inhibition [23]?
A: -1.32%

Q: What about the residual activity [24] of the same compound?
A: 60%

Q: What about the residual activity [25] of the same compound?
A: 82%

Q: And the residual activity [26]?
A: 86%

Q: What about the residual activity [27] of the same compound?
A: 77%

Q: What about the residual activity [28] of the same compound?
A: 93%

Q: What about the inhibition [29] of the same compound?
A: 1.11%

Q: And the residual activity [30]?
A: 76%

Q: And the residual activity [31]?
A: 95%

Q: What about the residual activity [32] of the same compound?
A: 97%

Q: And the residual activity [33]?
A: 100%

Q: And the residual activity [34]?
A: 81%

Q: What about the residual activity [35] of the same compound?
A: 72%

Q: And the residual activity [36]?
A: 88%

Q: What about the residual activity [37] of the same compound?
A: 84%

Q: What about the residual activity [38] of the same compound?
A: 100%

Q: And the residual activity [39]?
A: 100%

Q: What about the residual activity [40] of the same compound?
A: 82%
